Data set [1] has as its target T1, Bcl-2-like protein 1 (Homo sapiens, UniProt Q07817). Nature of the data set: Inhibition of BCL-XL (unknown origin) by fluorescence polarization assay. A general note: Fluorescence polarisation rises when a labelled molecule tumbles more slowly, as on binding a larger partner.
Data set [2] deals with T2, Apoptosis regulator Bcl-2 (Homo sapiens, UniProt P10415). As to the kind of experiment: Inhibition of BCL-2 (unknown origin) by fluorescence polarization assay.
Data set [3] has as its target T3, Induced myeloid leukemia cell differentiation protein Mcl-1 (Homo sapiens, UniProt Q07820). Nature of the data set: Displacement of fluorescent labeled NOXA peptide from recombinant MCL1 (unknown origin) after 15 mins by fluorescence polarization assay.
Data set [4] concerns the target T3, Induced myeloid leukemia cell differentiation protein Mcl-1.
Data set [5] has the same target. The source holds these as a separate data set.
For data set [6] the target is unchanged. This is another data set of the same source.
Description: Displacement of fluorescent labeled NOXA peptide from recombinant human MCL1 by fluorescence polarization assay in presence of 1% human serum
Data set [7] shares this target. The source holds these as a separate data set.
Description: (§1) Displacement of fluorescent labeled NOXA peptide from recombinant human MCL1 by fluorescence polarization assay
Data set [8] has the same target. As to the kind of experiment: Inhibition of MCL-1 in human H929 cells assessed as induction of caspase3/7 activation after 4 hrs by caspase-Glo 3/7 assay in presence of 0.1 to 10% fetal bovine serum. It is filed as cell-based.
Another data set deals with T4, Bcl-2-related protein A1 (Homo sapiens, UniProt Q16548).
T4 sequence (Q16548 whole entry): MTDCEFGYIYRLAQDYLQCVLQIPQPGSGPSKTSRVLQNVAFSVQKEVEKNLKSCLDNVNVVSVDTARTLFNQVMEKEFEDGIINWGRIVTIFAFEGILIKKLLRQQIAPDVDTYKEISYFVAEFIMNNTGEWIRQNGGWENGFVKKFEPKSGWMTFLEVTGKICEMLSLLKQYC
As to the kind of experiment: Inhibition of BCL2-A1 (unknown origin) after 1 hr by TR-FRET assay. For orientation: In TR-FRET formats the signal depends on donor and acceptor labels being close together.

The target in data set [9] is T1, Bcl-2-like protein 1.
Another data set concerns the target T5, Bcl-2-like protein 2 (Homo sapiens, UniProt Q92843).
T5 sequence (Q92843 whole entry): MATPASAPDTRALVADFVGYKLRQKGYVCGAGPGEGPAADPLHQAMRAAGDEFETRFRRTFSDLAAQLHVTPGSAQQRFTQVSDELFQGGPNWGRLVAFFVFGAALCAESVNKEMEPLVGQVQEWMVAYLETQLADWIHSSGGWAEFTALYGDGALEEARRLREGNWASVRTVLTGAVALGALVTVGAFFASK
Nature of the data set: Inhibition of BCL-W (unknown origin) after 1 hr by TR-FRET assay.

Data set [10] deals with T3, Induced myeloid leukemia cell differentiation protein Mcl-1. Nature of the data set: Inhibition of MCL-1 in human BXPC3 cells assessed as reduction of navitoclax EC50 at 20 uM after 72 hrs by CellTiter-Glo assay in presence of 10% fetal bovine serum. It is filed as cell-based. The conditions noted are these: BXPC-3. Background: In ATP-based viability assays light output follows the ATP content of the culture.

Data set [11] can be described thus: Fraction unbound in human plasma after 4.5 hrs by equilibrium dialysis method. Type of data set: ADME, cell-free.
Data set [12] deals with T2, Apoptosis regulator Bcl-2.
The target of data set [13] is T3, Induced myeloid leukemia cell differentiation protein Mcl-1. As to the kind of experiment: Inhibition of MCL-1 in human H929 cells assessed as loss in cell viability after 4 hrs by CellTiter-Glo assay in presence of 0.1 to 10% fetal bovine serum. Type of data set: cell-based.
Data set [14] shares this target. This is another data set of the same source.
Description: as §1
For the next data set, the target named is Albumin (Homo sapiens, UniProt P02768).
Data set [15] deals with T3, Induced myeloid leukemia cell differentiation protein Mcl-1. As to the kind of experiment: Ratio of Ki(app) for MCL1 (unknown origin) by TR-FRET assay in presence of 10% human serum to Ki(app) for MCL1 (unknown origin) by TR-FRET assay in absence of 10% human serum.

Active and inactive are the calls of the source. The rule behind the calls is not given here. A value given as a limit tells only on which side of the number the result lay.

Albumin, sequence (P02768 whole entry): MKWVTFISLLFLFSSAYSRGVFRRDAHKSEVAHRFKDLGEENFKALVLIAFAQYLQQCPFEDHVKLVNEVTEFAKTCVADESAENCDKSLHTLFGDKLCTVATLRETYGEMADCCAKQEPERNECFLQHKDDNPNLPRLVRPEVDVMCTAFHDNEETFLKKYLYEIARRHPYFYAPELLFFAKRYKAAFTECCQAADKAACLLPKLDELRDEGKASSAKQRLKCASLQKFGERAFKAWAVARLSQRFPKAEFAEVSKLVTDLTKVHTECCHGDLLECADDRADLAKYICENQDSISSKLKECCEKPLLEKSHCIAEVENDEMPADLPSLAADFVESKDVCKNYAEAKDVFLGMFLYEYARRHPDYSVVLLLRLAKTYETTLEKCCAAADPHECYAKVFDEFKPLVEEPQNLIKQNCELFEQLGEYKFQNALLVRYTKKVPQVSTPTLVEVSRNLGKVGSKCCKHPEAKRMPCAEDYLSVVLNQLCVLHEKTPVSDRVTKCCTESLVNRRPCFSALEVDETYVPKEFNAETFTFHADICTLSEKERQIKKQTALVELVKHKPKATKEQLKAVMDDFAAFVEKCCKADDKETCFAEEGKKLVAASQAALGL
T3 sequence (Q07820 whole entry): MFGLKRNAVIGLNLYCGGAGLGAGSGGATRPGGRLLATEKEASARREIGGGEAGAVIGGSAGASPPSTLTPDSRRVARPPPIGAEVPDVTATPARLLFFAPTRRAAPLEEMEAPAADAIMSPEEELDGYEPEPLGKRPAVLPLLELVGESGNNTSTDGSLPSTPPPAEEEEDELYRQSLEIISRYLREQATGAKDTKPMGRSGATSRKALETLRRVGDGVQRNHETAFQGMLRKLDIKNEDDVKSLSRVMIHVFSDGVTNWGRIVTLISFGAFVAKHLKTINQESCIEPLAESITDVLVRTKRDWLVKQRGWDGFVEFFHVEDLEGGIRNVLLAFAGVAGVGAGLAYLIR
T1 sequence (Q07817 whole entry): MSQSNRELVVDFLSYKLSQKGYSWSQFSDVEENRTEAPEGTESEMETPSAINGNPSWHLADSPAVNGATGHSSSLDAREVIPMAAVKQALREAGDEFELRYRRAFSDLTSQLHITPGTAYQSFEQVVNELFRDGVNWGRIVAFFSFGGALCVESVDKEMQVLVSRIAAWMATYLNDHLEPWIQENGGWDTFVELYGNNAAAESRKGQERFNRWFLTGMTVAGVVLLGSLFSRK
T2 sequence (P10415 whole entry): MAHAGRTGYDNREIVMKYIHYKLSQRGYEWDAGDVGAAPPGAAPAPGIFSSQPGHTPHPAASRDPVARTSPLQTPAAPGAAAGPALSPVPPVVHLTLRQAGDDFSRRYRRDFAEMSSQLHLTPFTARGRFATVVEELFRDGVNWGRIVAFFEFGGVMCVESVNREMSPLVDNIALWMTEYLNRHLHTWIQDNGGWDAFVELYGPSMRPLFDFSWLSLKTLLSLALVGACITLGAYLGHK
Description for Albumin: Displacement of probe S1 from recombinant human serum albumin domain 3 after 5 mins by fluorescence polarization assay

On to `O=C(O)c1[nH]c2ccccc2c1CCCCC1CCCCC1`, for which the Ki (commonly a dissociation constant, usually derived from enzyme kinetics or from competition with a known ligand) at Bcl-2-like protein 1 [1] is greater than 10000 nM; in [2] it was greater than 10000 nM; in data set [3], 4400 nM.
Consider `Cc1nn(C)c(COc2ccc(N3CCN(S(=O)(=O)N4CCOCC4)CC3)cc2)c1-c1cccc2c(CCCOc3cccc4ccccc34)c(C(=O)O)n(CCN3CCOCC3)c12`, for which the Ki in data set [4] came to 0.48 nM; in data set [5] it was 12.3 nM.
For `Cc1cccc(-c2cccc3c(CCCOc4cccc5ccccc45)c(C(=O)O)[nH]c23)c1`, the Ki in [6] was found to be 8200 nM; in data set [7], 160 nM.
With `Cc1nn(C)c(COc2ccc(N3CCN(S(C)(=O)=O)CC3)cc2)c1-c1cccc2c(CCCOc3cccc4ccccc34)c(C(=O)O)n(CCN3CCOCC3)c12`, the inhibition entry in data set [8] and in data set [13] was “Active” each time. Further, the Ki (on Bcl-2-related protein A1; at Bcl-2-like protein 1 [9]; on Bcl-2-like protein 2; in [12]) was greater than 660 nM throughout. For the same compound, the fold change (FC) in data set [10] turned out to be 45. For the same compound, in data set [11], the fraction unbound (as a rule, free concentration divided by total concentration) at 4.5 h is less than 0.01.
Regarding `CC(=O)N1CCN(c2ccc(OCc3nn(C)c(C)c3-c3cccc4c(CCCOc5cccc6ccccc56)c(C(=O)O)n(Cc5cccnc5)c34)cc2)CC1`, the Ki in data set [4] came out at 1.8 nM; in [5] it was 98 nM.
Turning to `Cc1ccccc1-c1cccc2c(CCCO)c(C(=O)O)[nH]c12`, in [14], the inhibition result is “inactive”.
Take `O=C(O)c1[nH]c2c(-c3ccccc3)cccc2c1CCCOc1cccc2ccccc12`: the Ki stood at 5300 nM in data set [6] and 130 nM in data set [7].
`CCOC(=O)c1c(CCCOc2cccc3ccccc23)c2cccc(-c3c(C)nn(C)c3COc3ccc(N4CCNCC4)cc3)c2n1CCN1CCOCC1`: the Ki in data set [4] amounted to 2 nM; in [5], 12 nM.
`Cc1ccccc1-c1cccc2c(CCCOc3cccc4ccccc34)c(C(=O)O)[nH]c12`: the Ki was 8600 nM in data set [6], less than 30 nM on Albumin and 35 nM in [7].
Take `CCCS(=O)(=O)N1CCN(c2ccc(OCc3c(-c4cccc5c(CCCOc6cccc7ccccc67)c(C(=O)O)n(CCN6CCOCC6)c45)c(C)nn3C)cc2)CC1`: the Ki was found to be 0.31 nM in data set [4] and 8.8 nM in data set [5].
As to `Cc1nn(C)c(COc2ccc(N3CCN(S(=O)(=O)N(C)C)CC3)cc2)c1-c1cccc2c(CCCOc3cccc4ccccc34)c(C(=O)O)n(CCN3CCOCC3)c12`, the Ki in data set [4] amounted to 0.45 nM; in data set [5] it was 7.9 nM.
Turning to `Cc1ccc(-c2cccc3c(CCCOc4cccc5ccccc45)c(C(=O)O)[nH]c23)cc1`, the results for the Ki in data set [6] and in data set [7] were 9100 nM and 150 nM, respectively.
Regarding `CC(=O)N1CCN(c2ccc(OCc3c(-c4cccc5c(CCCOc6cccc7ccccc67)c(C(=O)O)n(CCN6CCOCC6)c45)c(C)nn3C)cc2)CC1`, the figures for the Ki in data set [4] and in [5] were 0.24 nM and 2.7 nM, respectively. Moreover, the Ratio Ki(app) in data set [15] came to 10.
In the case of `Cc1nn(C)c(COc2ccccc2)c1-c1cccc2c(CCCOc3cccc4ccccc34)c(C(=O)O)n(CCN3CCOCC3)c12`, the Ki in data set [4] was 2.3 nM; in data set [5], 114 nM.
Regarding `Cc1nn(C)c(C)c1-c1cccc2c(CCCOc3cccc4ccccc34)c(C(=O)O)n(CCN3CCOCC3)c12`, the Ki in data set [6] was 4 nM; on Albumin, 1450 nM; in [7] it was less than 10 nM; in data set [4] it was 1.5 nM; in data set [5], 35 nM.
`O=C(O)c1[nH]c2ccccc2c1CCCO`: the Ki on Albumin was greater than 100000 nM. The inhibition entry in data set [14] was “inactive”.
Take `CCS(=O)(=O)N1CCN(c2ccc(OCc3c(-c4cccc5c(CCCOc6cccc7ccccc67)c(C(=O)O)n(CCN6CCOCC6)c45)c(C)nn3C)cc2)CC1`: the Ki in [4] turned out to be 0.2 nM; in data set [5] it was 4.9 nM.

The values above are taken from ChEMBL document CHEMBL3414447, “Structure-guided design of a series of MCL-1 inhibitors with high affinity and selectivity” (J Med Chem, 2015).
